Each structure is given as a SMILES string.

The test system of the assay is Clone20 osteoblast Shn3 3'UTR firefly luciferase, 24 h. Description: Shn3 3'UTR reporter inhibitors, dose response, cell-based, luminescence, dry powder (AID 720696).
Usually AC50 stands for the concentration at which the activity in the assay is half-maximal. Consider `CC(C)(C)NC(=O)CSc1nc2ccc(NC(=O)CSc3nnnn3Cc3ccccc3)cc2s1`, for which the AC50 is 2140 nM.

Consider `CN(C)S(=O)(=O)c1cccc(NC(=O)c2cccc(S(=O)(=O)N3CCc4ccccc43)c2)c1`, for which the half-maximal activity concentration (AC50) is 2410 nM.

Regarding `Nc1nonc1C(=O)NCCNCc1cc(Br)ccc1OCc1ccc(F)cc1`, the concentration at half-maximal activity (AC50) was 2030 nM.

Regarding `CN(CC(=O)Nc1cccc(S(=O)(=O)N2CCOCC2)c1)CC(=O)Nc1ccc(Cl)c(C(F)(F)F)c1`, the AC50 was 877 nM.

Consider `CC(C)[C@H](NC(=O)OC(C)(C)C)c1nnc(S(=O)(=O)Cc2c(F)cccc2Cl)o1`, for which the AC50 was 17100 nM.

Consider `COc1ccc(NS(=O)(=O)c2ccc(C(=O)N3CCCCCC3)cc2)cc1`, for which the AC50 was 3700 nM.

For `COc1ccccc1N1CCN(c2ncc(C(=O)N3CCN(c4cccc(Cl)c4)CC3)c3ccccc23)CC1`, the AC50 was 2540 nM.

As to `CCCc1nnc(NC(=O)c2nc(S(=O)(=O)Cc3ccc(C)cc3)ncc2Cl)s1`, the AC50 was 3830 nM.

For `O=C1CSc2ccc(C(=O)Nc3cccc(S(=O)(=O)Nc4ccc(Br)cc4)c3)cc2N1`, the AC50 is 1990 nM.

Turning to `CCOC(=O)c1ccc(NC(=O)Cn2ncc(Cl)c(Cl)c2=O)cc1`, the concentration at half-maximal activity (AC50) is 2560 nM.

In the case of `CC(=O)Nc1cccc(NC(=O)CSc2ncc(-c3ccc(Cl)cc3)n2Cc2ccco2)c1`, the AC50 is 3380 nM.

`CCOC(=O)C1CCN(C(=O)c2ccc(OCC(=O)Nc3cccc(C(F)(F)F)c3)c(OC)c2)CC1`: the AC50 is 1400 nM.

For the molecule `COc1cc2ncnc(N[C@H](C)c3ccccc3)c2cc1OC`, the AC50 is 5130 nM.

In the case of `COc1ccc(NC(=O)c2nc(S(=O)(=O)Cc3cccc(C)c3)ncc2Cl)c(OC)c1`, the concentration at half-maximal activity (AC50) was 3860 nM.

On to `O=c1c2ccccc2nc2n1C(CSCc1ccc(Cl)cc1Cl)CS2` (stereo not drawn), for which the AC50 is 2010 nM.

Turning to `Cc1ccc2cc(CN(CC3CCCO3)C(=O)NC3CCCCC3)c(=O)[nH]c2c1C` (stereo not drawn), the AC50 is 5220 nM.

For `CCCOc1ccccc1C1CC(=O)Nc2cc3c(cc21)OCO3` (stereo not drawn), the AC50 was 2160 nM.

Turning to `CN(C(=O)COc1ccccc1C(=O)NCCOc1ccccc1)c1ccccc1`, the AC50 was 1920 nM.

As for `CCOC(=O)C1(Cc2ccc(Cl)cc2)CCN(C(C)Cc2ccc(O)c(OC)c2)CC1` (stereo not drawn), the AC50 was 1620 nM.

For the molecule `Cc1cc2c(cc(C(=O)N3CCC(C(=O)NC4CCCC4)CC3)n2Cc2c(F)cccc2Cl)o1`, the AC50 was 21300 nM.

Take `CN(C)c1nc(-c2ccccn2)nnc1-c1ccccc1`: the AC50 was 2620 nM.

Take `Fc1ccc(-n2nnnc2-c2cnc(-c3cccs3)nc2C(F)(F)F)cc1`: the AC50 was 2760 nM.

In the case of `Cc1cc(N2CCCC2=O)cc(C)c1S(=O)(=O)NCCOc1ccc(C(C)(C)C)cc1`, the AC50 is 797 nM.

As for `COc1ccc2c(c1)c(CC(=O)Nc1cc(C)ccc1C)c(C)n2C(=O)c1ccc(Cl)cc1`, the AC50 was 3240 nM.

With `COc1ccc(Nc2nc(N3CCCCC3)c3ccccc3n2)cc1`, the AC50 was 1100 nM.

Regarding `O=C(c1nnsc1S(=O)c1ccc(Cl)cc1)N1CCOCC1` (stereo not drawn), the AC50 is 5080 nM.

As to `CC(=O)N1CCN(C(=O)CCc2cc(C(C)(C)C)c(O)c(C(C)(C)C)c2)CC1`, the half-maximal activity concentration (AC50) was 4010 nM.

As to `COc1cc(CN2CCc3ccccc3C2)ccc1O`, the AC50 was 2090 nM.

Source of the values: PubChem BioAssay AID720696 (Broad Institute, 2013).
